Assay results as given in patent US20150335719A1, “Intravitreal Injection of a Chimeric Phage Endolysin Ply187; Protection from Staphylococcus aureus Endophthalmitis” (priority 2014, published 2015).

How the values were obtained:
[1] = system: S. aureus strain RN6390; assay: Resistance development assay by repeated exposure in an MIC assay; format: cell-based, Staphylococcus aureus; details: RN6390, up to 10 rounds of exposure
Procedure: Error bars represent SEM for three independent experiments performed in triplicates. […] Cells surviving at half (½) of the MIC value were used as an inoculum for each subsequent round of exposure. The change in susceptibility is recorded and presented as fold change resistance from day 1 to 10 of exposure and also after 5 days of growth (without any selection pressure) following the 10th day (represented as 10+5). The data represent means±SEM of two independent experiments performed in triplicate.
To verify and quantify the lytic activity against live S. aureus, we have tested Ply187AN-KSH3b in the Turbidity Reduction Assay. The turbidity assay measures the drop in optical density (OD) resulting from lysis of the target bacteria with the phage endolysin-derived protein. Turbidity reduction assays by chimeric Ply187AN-KSH3b were performed in a 96 well plate as described previously by Becker et al. (2009a, 2009b, supra). Briefly, S. aureus strains/isolates RN6390, USA 300, and clinical isolates R2932, R2952 and R3000 were grown to logarithmic phase (OD600 0.4-0.6) at 37° C. in tryptic Soy broth (TSB). The culture was harvested by centrifugation and the pellet was resuspended in assay buffer (400 mM NaCl, 20 mM Tris HCl, 1% glycerol, pH 7.5). Bacterial cultures (100 μl/well) were mixed with 100 μl of (as per MIC) of chimeric Ply187AN-KSH3b protein diluted in the same assay buffer. The reduction in the turbidity was measured after every 5 min up to 1 h using a micro plate reader. EB diluted in the same assay buffer (without chimeric Ply187AN-KSH3b protein) was used as a control (EB C). Resistance development against chimeric Ply187AN-KSH3b was tested using repeated exposure in an MIC assay as described by Rodriguez-Rubio and co-workers (Rodriguez-Rubio et al., PLoS One 8:e64671.). In brief, bacterial cultures (10^5 CFU/well) were exposed overnight to a 2-fold serial dilution of chimeric Ply187AN-KSH3b, lysostaphin, and gentamicin, where the latter serve as controls. […]

[2] = system: S. aureus (strain RN6390, USA 300, R 2932, R 2952, R 3000) biofilms; assay: Biofilm disruption (Live/Dead BacLight staining and CFU count); format: cell-based, Staphylococcus aureus; details: 24 h biofilms treated for 30 min
Procedure: FIGS. 2A-2E depicts the biofilm disruption activity of chimeric Ply187AN-KSH3b. In FIG. 2A-2E, either chimeric Ply187AN-KSH3b or EB (EB C) or Gentamicin (for MDR/MRSA strains/isolates) was applied to cover slips containing S. aureus RN6390 (FIG. 2A), USA 300 (FIG. 2B), R 2932 (FIG. 2C), R 2952 (FIG. 2D) and R3000 (FIG. 2E) biofilms for 30 min. Bacterial killing was assessed via Live/Dead™ staining and subsequent fluorescence microscopy. FIG. 2F depicts the viability of biofilm associated bacteria enumerated by CFU count. Error bars represent the mean±SEM of two independent experiments performed in triplicate.
Biofilm disruption by the chimeric Ply187AN-KSH3b was observed using Live/Dead BacLight™ staining which takes advantage of SYTO™ 9, a green-fluorescent nucleic acid stain and propidium iodide that fluoresces red. SYTO™ 9 labels a bacterial population with an intact membrane and fluoresces green. In contrast, propidium iodide penetrates bacteria with damaged membranes and fluoresces red. Briefly, static biofilms of S. aureus (strain RN6390, USA 300, R 2932, R 2952, R 3000) were grown on glass cover slips in 6 well tissue culture plates in fresh TSB media seeded with S. aureus. After incubation at 37° C. for 24 h, the biofilms were treated for an additional 30 min with chimeric Ply187AN-KSH3b (as per MIC) diluted in EB or with EB/gentamicin alone. The biofilms were then stained with the Live/Dead BacLight™ bacterial viability kit (Invitrogen, Carlsbad, Calif.), per manufacturer's instruction. The cover slips were washed three times with PBS to remove excess stain and cell debris, mounted with mounting oil on a glass slide, and examined with an Eclipse 90i fluorescence microscope (Nikon, Melville, N.Y.).

Substance | fold change in resistance [1] | biofilm disruption by Live/Dead staining [2]
lysostaphin | 128 fold | –
gentamicin [reference compound] | 16 fold | green fluorescence
